A short description of data set [1]: Hydrolysis rate (half-life) in buffer, pH 7.4. It counts as physicochemical. An excerpt: (§1) Hydrolysis Rate (half-life t½)
(§2) Hydrolysis Rate (half life t½)

Data set [2] in a line: Hydrolysis rate (half-life) in human plasma. The format is in vitro ADME.
Source text: as §1, §2

Data set [3] can be described thus: Aqueous solubility compared with constituent drugs. It counts as physicochemical. Conditions: qualitative comparison with the unlinked drugs.
Data set [4] in a line: Lipophilicity compared with constituent drug. The format is physicochemical. Conditions: qualitative comparison.
The conditions of data set [5]: not told.
[6] abbreviates: read-out: Hydrolysis Rate (half-life t½) In Buffer, pH7.4 (converted).
Where [7] appears, read: read-out: Hydrolysis Rate (half-life t½) In Human Plasma.
Where [8] appears, read: read-out: Hydrolysis Rate (half life t½) In Human Plasma (converted).

Five compounds from patent US20050008695A1, “Compositions and methods for delivering a biologically active agent” (Control Delivery Systems, Inc., priority 2003, published 2005) can be followed below.

Usually half-life stands for how long it takes for the measured level to halve.

On to `O=C(Cc1ccccc1Nc1c(Cl)cccc1Cl)OCc1oc(=O)oc1COC(=O)Cc1ccccc1Nc1c(Cl)cccc1Cl` [Diclofenac Dimer], for which the half-life is 25 h in data set [1] (setting [6]) and 0.1 h in data set [2] (setting [7]).
As for `CC1(C)O[C@@H]2CC3C4C[C@H](F)C5=CC(=O)C=CC5(C)[C@@]4(F)CCC3(C)[C@]2(C(=O)COC(=O)Cc2ccccc2Nc2c(Cl)cccc2Cl)O1` (stereo partly shown) [Diclofenac-Fluocinolone Acetonide], the half-life in data set [1] (setting [6]) is 15 h; in data set [2] (setting [8]), 168 h. Besides, in data set [3], the “Aqueous / water solubility relative to constituent drug(s)” value is given as “lower solubility under aqueous conditions than either of the constituent drugs”.
Take `CC1COc2c(N3CCN(C)CC3)c(F)cc3c(=O)c(C(=O)OCCOCCOC(=O)Cc4ccccc4Nc4c(Cl)cccc4Cl)cn1c23` (stereo not shown) [Diclofenac-Ofloxacin]: in data set [1] (given in words, no number), the “Hydrolysis Rate (half life t½) In Buffer, pH7.4” value is “days”. In data set [2] (setting [8]), the half-life is 6.5 h. Also, the “Lipophilicity relative to constituent drug” value in data set [4] is listed as “more lipophilic than ofloxacin alone”.
As to `O=C(Cc1ccccc1Nc1c(Cl)cccc1Cl)OCCOCCOCCOCCO` [Diclofenac-PEG4], the half-life was 168 h in data set [1] (read-out: Hydrolysis Rate (half life t½) In Buffer, pH7.4 (converted)) and 0.167 h in data set [2] (setting [7]). Also, the “Aqueous / water solubility relative to constituent drug(s)” value in data set [3] was “higher water solubility than unionized diclofenac”. Also, the “Lipophilicity relative to constituent drug” value in data set [4] is “more lipophilic than the ionized form”.
`O=C(O)Cc1ccccc1Nc1c(Cl)cccc1Cl.O=C(O)c1cn(C2CC2)c2cc(N3CCNCC3)c(F)cc2c1=O` [diclofenac-ciprofloxacin codrug]: the Permeation result in data set [5] is listed as “enhanced permeation”.
